US12655142B2 (Merck Patent GmbH, priority 2019, dated 2026)
pIC50: −log10 of the molar value.

Tests used:
[1] = target: T1, GIST430/654 cell line expressing mutated constitutively active cKIT receptor tyrosine kinase (Δ560-576 deletion and V654A point mutation) (Homo sapiens, UniProt P10721, DEL560-576/V654A); assay: Cellular cKIT autophosphorylation (phospho-Y307-cKIT, Luminex bead assay) in GIST430/654 cells; assay type: cell-based; conditions: compounds 45 min, read-out: GIST 430/654 IC50
T1 construct: endogenous in cells; host or cells: GIST430/654 cells
T1 sequence (P10721 with tags, fused parts or gaps DEL560-576/V654A): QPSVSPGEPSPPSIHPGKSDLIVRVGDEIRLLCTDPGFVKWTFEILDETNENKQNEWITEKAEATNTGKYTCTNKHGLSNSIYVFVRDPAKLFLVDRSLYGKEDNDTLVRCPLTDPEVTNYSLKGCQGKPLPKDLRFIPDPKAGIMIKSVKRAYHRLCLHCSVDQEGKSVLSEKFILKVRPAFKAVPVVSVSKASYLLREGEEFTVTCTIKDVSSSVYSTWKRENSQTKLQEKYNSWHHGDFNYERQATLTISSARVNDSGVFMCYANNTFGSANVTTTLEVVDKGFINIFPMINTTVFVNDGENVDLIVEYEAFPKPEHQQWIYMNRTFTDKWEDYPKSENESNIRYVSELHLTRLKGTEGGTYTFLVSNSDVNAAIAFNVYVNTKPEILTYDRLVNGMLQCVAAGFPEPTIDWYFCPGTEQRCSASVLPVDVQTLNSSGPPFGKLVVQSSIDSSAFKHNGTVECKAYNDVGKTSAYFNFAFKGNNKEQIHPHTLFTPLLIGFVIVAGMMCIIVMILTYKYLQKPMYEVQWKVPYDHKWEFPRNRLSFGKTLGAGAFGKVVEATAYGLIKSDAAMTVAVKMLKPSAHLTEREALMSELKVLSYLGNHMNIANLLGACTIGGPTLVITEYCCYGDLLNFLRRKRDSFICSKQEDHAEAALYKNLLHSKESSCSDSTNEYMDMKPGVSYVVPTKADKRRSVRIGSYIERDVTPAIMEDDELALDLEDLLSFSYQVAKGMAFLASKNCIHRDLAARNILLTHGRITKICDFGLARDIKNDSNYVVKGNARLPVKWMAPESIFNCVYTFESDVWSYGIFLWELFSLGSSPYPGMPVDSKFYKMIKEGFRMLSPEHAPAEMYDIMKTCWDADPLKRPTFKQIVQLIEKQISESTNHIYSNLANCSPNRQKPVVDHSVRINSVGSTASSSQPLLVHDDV
Experimental: Assay Principle for Cellular Testing of cKIT Mutant Inhibitors
The GIST430 cell line expressing constitutive active cKIT receptor tyrosine kinase (Δ560-576 deletion) and the Imatinib resistant GIST430/654 cell line expressing mutated constitutively active cKIT receptor tyrosine kinase (Δ560-576 deletion and V654A point mutation) were employed for assessing cellular potency of compounds. Cellular activity of mutant cKIT was determined by the degree of cKIT autophosphorylation at tyrosine 307 using a Luminex-based bead assay. GIST430 cells were plated with 22,000 cells per well of a 96-well plate in 100 μl medium (85% IMDM/15% FCS) and GIST430/654 cells were plated with 25,000 cells per well of a 96-well plate in 100 μl medium (85% IMDM/15% FCS supplemented with 100 nM Imatinib). At the following day compounds were added in a serial dilution for 45 min. Then, cells were lysed with 90 μl lysis buffer (20 mM Hepes pH 7.5, 200 mM NaCl, 1.5 mM MgCl2×6H2O, 0.4 mM EDTA, 1% Triton-X-100, 1% Phosphatase-Inhibitor II, 20 mM β-Glycerolphosphat, 0.1% Protease-Inhibitor Cocktail III, 0.01% Benzonase) and lysates were cleared by centrifugation through a 96-well filter plate (0.65 μm). Samples were incubated with Luminex-beads which were coupled with an anti-total cKIT antibody overnight at 4° C. under gentle agitation. For detection of phospho-Y307-cKIT a phosphospecific antibody and a species-specific PE-labeled secondary antibody were added. The amount of phospho-Y307-cKIT was determined in a Luminex 200 instrument measuring 100 events per well within 60 seconds.
Counts from samples treated with compounds were calculated as percent of control from solvent treated (0.3% DMSO) samples. Dose-response curves were fitted and IC50 values were determined using Genedata Screener software.

[2] = target: T2, c-Kit(V654A) (Homo sapiens, UniProt P10721, V654A); assay: c-Kit(V654A) assay (33P-ATP filter binding kinase assay); assay type: biochemical; conditions: recombinant human c-Kit aa 544-end V654A, ATP 200 μM
T2 construct: recombinant human c-Kit, amino acids 544-end containing the V654A mutation; GST (N)
T2 sequence (P10721 544-976 V654A): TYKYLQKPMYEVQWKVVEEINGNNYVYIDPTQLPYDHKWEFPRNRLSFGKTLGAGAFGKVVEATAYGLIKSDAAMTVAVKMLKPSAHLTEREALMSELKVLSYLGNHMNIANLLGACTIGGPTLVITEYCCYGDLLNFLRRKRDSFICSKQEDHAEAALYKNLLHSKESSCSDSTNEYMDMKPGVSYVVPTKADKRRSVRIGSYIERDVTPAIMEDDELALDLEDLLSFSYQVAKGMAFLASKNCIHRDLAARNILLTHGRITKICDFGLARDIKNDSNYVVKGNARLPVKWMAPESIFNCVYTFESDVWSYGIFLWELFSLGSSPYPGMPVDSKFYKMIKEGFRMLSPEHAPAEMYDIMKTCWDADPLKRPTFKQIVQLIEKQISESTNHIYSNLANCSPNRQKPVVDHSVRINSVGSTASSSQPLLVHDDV
Experimental: c-Kit(V654A) (N-terminal GST-tagged, recombinant human c-Kit, amino acids 544-end containing the V654A mutation) is incubated with 8 mM MOPS pH 7.0, 0.2 mM EDTA, 250 μM GGMEDIYEFMGGKKK, 10 mM MgAcetate and [gamma-33P-ATP] (specific activity approx. 500 cpm/pmol, concentration 200 μM). The reaction is initiated by the addition of the MgATP mix. After incubation for 40 minutes at room temperature, the reaction is stopped by the addition of 3% phosphoric acid solution. 10 μL of the reaction is then spotted onto a P30 filtermat and washed three times for 5 minutes in 75 mM phosphoric acid and once in methanol prior to drying and scintillation counting.

Compound	pIC50 [1]	pIC50 [2]
CN1CCN(CCOc2ccn3c(-c4cc(OCc5ccc(-c6cnn(C)c6)cc5)ncn4)cnc3c2)CC1 [A86, 7-[2-(4-methyl-piperazin-1-yl)-ethoxy]-3-{6-[4-(1-methyl-1H-pyrazol-4-yl)-benzyloxy]-pyrimidin-4-yl}-imidazo[1,2-a]pyridine]	6.96	8.30
Cn1cc(-c2ccc(COc3cc(-c4cnc5cc(OCCN6CCCC6)ccn45)ncn3)cc2)cn1 [A87, 3-{6-[4-(1-methyl-1H-pyrazol-4-yl)-benzyloxy]-pyrimidin-4-yl}-7-(2-pyrrolidin-1-yl-ethoxy)-imidazo[1,2-a]pyridine]	6.30	7.96
Cn1cc(-c2ccc(CNc3cc(-c4cnc5cc(OCCCN6CCOCC6=O)ccn45)ncn3)cc2)cn1 [A88, 4-[3-({3-[6-({[4-(1-methyl-1H-pyrazol-4-yl)phenyl]methyl}amino)pyrimidin-4-yl]imidazo[1,2-a]pyridin-7-yl}oxy)propyl]morpholin-3-one]	7.05	7.92
Cn1cc(-c2ccc(COc3cc(-c4cnc5cc(OCCN6CCC(F)(F)C6)ccn45)ncn3)cc2)cn1 [A90, 7-[2-(3,3-difluoro-pyrrolidin-1-yl)-ethoxy]-3-{6-[4-(1-methyl-1H-pyrazol-4-yl)-benzyloxy]-pyrimidin-4-yl}-imidazo[1,2-a]pyridine]	6.59	8.00
Cn1cc(-c2ccc(CNc3cc(-c4cnc5cc(OCCN6CCOCC6=O)ccn45)ncn3)cc2)cn1 [A92, 4-[2-({3-[6-({[4-(1-methyl-1H-pyrazol-4-yl)phenyl]methyl}amino)pyrimidin-4-yl]imidazo[1,2-a]pyridin-7-yl}oxy)ethyl]morpholin-3-one]	7.06	8.09
CN1CCN(CCCOc2ccn3c(-c4cc(NCc5ccc(-c6cnn(C)n6)cc5)ncn4)cnc3c2)CC1 [A96, N-{[4-(2-methyl-2H-1,2,3-triazol-4-yl)phenyl]methyl}-6-{7-[3-(4-methylpiperazin-1-yl)propoxy]imidazo[1,2-a]pyridin-3-yl}pyrimidin-4-amine]	7.51	8.54
Cn1cc(-c2ccc(CNc3cc(-c4cnc5cc(OCCN6CC7CC(C6)O7)ccn45)ncn3)cc2)cn1 [A103, [4-(1-methyl-1H-pyrazol-4-yl)-benzyl]-(6-{7-[2-(6-oxa-3-aza-bicyclo[3.1.1]hept-3-yl)-ethoxy]-imidazo[1,2-a]pyridin-3-yl}-pyrimidin-4-yl)-amine]	6.92	8.02
Cn1ncc(-c2ccc(CNc3cc(-c4cnc5cc(OCCN6CCC(F)(F)C6)ccn45)ncn3)cc2)n1 [A105, (6-{7-[2-(3,3-difluoro-pyrrolidin-1-yl)-ethoxy]-imidazo[1,2-a]pyridin-3-yl}-pyrimidin-4-yl)-[4-(2-methyl-2H-[1,2,3]triazol-4-yl)-benzyl]-amine]	6.92	8.02
Cn1ncc(-c2ccc(CNc3cc(-c4cnc5cc(OCc6ccccn6)ccn45)ncn3)cc2)n1 [A106, [4-(2-methyl-2H-[1,2,3]triazol-4-yl)-benzyl]-{6-[7-(pyridin-2-ylmethoxy)-imidazo[1,2-a]pyridin-3-yl]-pyrimidin-4-yl}-amine]	6.43	8.02
Cn1cc(-c2ccc(CNc3cc(-c4cnc5cc(OCC(C)(C)N6CCOCC6)ccn45)ncn3)cc2)cn1 [A107, {6-[7-(2-methyl-2-morpholin-4-yl-propoxy)-imidazo[1,2-a]pyridin-3-yl]-pyrimidin-4-yl}-[4-(1-methyl-1H-pyrazol-4-yl)-benzyl]-amine]	6.92	7.89
Cn1ncc(-c2ccc(CNc3cc(-c4cnc5cc(OCC(C)(C)N6CCOCC6)ccn45)ncn3)cc2)n1 [A109, {6-[7-(2-methyl-2-morpholin-4-yl-propoxy)-imidazo[1,2-a]pyridin-3-yl]-pyrimidin-4-yl}-[4-(2-methyl-2H-[1,2,3]triazol-4-yl)-benzyl]-amine]	7.10	8.12
Cn1ncc(-c2ccc(CNc3cc(-c4cnc5cc(OCc6cccnc6)ccn45)ncn3)cc2)n1 [A112, [4-(2-methyl-2H-[1,2,3]triazol-4-yl)-benzyl]-{6-[7-(pyridin-3-ylmethoxy)-imidazo[1,2-a]pyridin-3-yl]-pyrimidin-4-yl}-amine]	6.59	7.40
Cn1cc(-c2ccc(CNc3cc(-c4cnc5cc(OCc6nccn6C)ccn45)ncn3)cc2)cn1 [A113, {6-[7-(1-methyl-1H-imidazol-2-ylmethoxy)-imidazo[1,2-a]pyridin-3-yl]-pyrimidin-4-yl}-[4-(1-methyl-1H-pyrazol-4-yl)-benzyl]-amine]	6.21	7.85
CN1CCC(CCOc2ccn3c(-c4cc(NCc5ccc(-c6cnn(C)c6)cc5)ncn4)cnc3c2)C1 (stereo not shown) [A115, [4-(1-methyl-1H-pyrazol-4-yl)-benzyl]-(6-{7-[2-(1-methyl-pyrrolidin-3-yl)-ethoxy]-imidazo[1,2-a]pyridin-3-yl}-pyrimidin-4-yl)-amine]	7.31	8.43

Continued by rising pIC50 [1], values first:

pIC50 [1]	pIC50 [2]	Compound
6.01	7.57	Cn1cc(-c2ccc(CNc3cc(-c4cnc5cc([N+](=O)[O-])ccn45)ncn3)cc2)cn1 [A81, N-{[4-(1-methyl-1H-pyrazol-4-yl)phenyl]methyl}-6-{7-nitroimidazo[1,2-a]pyridin-3-yl}pyrimidin-4-amine]
6.57	8.04	Cn1cc(-c2ccc(CNc3cc(-c4cnc5cc(Cl)ccn45)ncn3)cc2)cn1 [A82, 6-{7-chloroimidazo[1,2-a]pyridin-3-yl}-N-{[4-(1-methyl-1H-pyrazol-4-yl)phenyl]methyl}pyrimidin-4-amine]
6.68	8.01	Cn1cc(-c2ccc(CNc3cc(-c4cnc5cc(OCCN6CCN(C7COC7)CC6=O)ccn45)ncn3)cc2)cn1 [A95, 1-[2-({3-[6-({[4-(1-methyl-1H-pyrazol-4-yl)phenyl]methyl}amino)pyrimidin-4-yl]imidazo[1,2-a]pyridin-7-yl}oxy)ethyl]-4-(oxetan-3-yl)piperazin-2-one]
6.82	7.66	Cn1cc(-c2ccc(CNc3cc(-c4cnc5cc(OCCCN6CCC(F)(F)C6)ccn45)ncn3)cc2)cn1 [A101, 6-{7-[3-(3,3-difluoropyrrolidin-1-yl)propoxy]imidazo[1,2-a]pyridin-3-yl}-N-{[4-(1-methyl-1H-pyrazol-4-yl)phenyl]methyl}pyrimidin-4-amine]
6.96	7.89	CN1CCN(CCOc2ccn3c(-c4cc(NCc5ccc(-c6cnn(C)c6)cc5)ncn4)cnc3c2)CC1=O [A93, 1-methyl-4-[2-({3-[6-({[4-(1-methyl-1H-pyrazol-4-yl)phenyl]methyl}amino)pyrimidin-4-yl]imidazo[1,2-a]pyridin-7-yl}oxy)ethyl]piperazin-2-one]
7.01	8.08	Cn1ncc(-c2ccc(CNc3cc(-c4cnc5cc(OCCc6nccn6C)ccn45)ncn3)cc2)n1 [A98, (6-{7-[2-(1-methyl-1H-imidazol-2-yl)-ethoxy]-imidazo[1,2-a]pyridin-3-yl}-pyrimidin-4-yl)-[4-(2-methyl-2H-[1,2,3]triazol-4-yl)-benzyl]-amine]
7.09	8.07	Cn1cc(-c2ccc(CNc3cc(-c4cnc5cc(OCCN6CCC(F)C6)ccn45)ncn3)cc2)cn1 (stereo not shown) [A89, 6-{7-[2-(3-fluoropyrrolidin-1-yl)ethoxy]imidazo[1,2-a]pyridin-3-yl}-N-{[4-(1-methyl-1H-pyrazol-4-yl)phenyl]methyl}pyrimidin-4-amine]
7.19	8.17	CN1CCN(CCCOc2ccn3c(-c4cc(NCc5ccc(-c6cnn(C)c6)cc5)ncn4)cnc3c2)CC1 [A94, N-{[4-(1-methyl-1H-pyrazol-4-yl)phenyl]methyl}-6-{7-[3-(4-methylpiperazin-1-yl)propoxy]imidazo[1,2-a]pyridin-3-yl}pyrimidin-4-amine]
7.20	8.10	Cn1cc(-c2ccc(CNc3cc(-c4cnc5cc(OCCc6nccn6C)ccn45)ncn3)cc2)cn1 [A111, (6-{7-[2-(1-methyl-1H-imidazol-2-yl)-ethoxy]imidazo[1,2-a]pyridin-3-yl}-pyrimidin-4-yl)-[4-(1-methyl-1H-pyrazol-4-yl)-benzyl]-amine]
